Drawing on US10047098B2, “C5-C6-oxacyclic fused iminopyrimidinone compounds as bace inhibitors, compositions, and their use” (Merck Sharp & Dohme Corp., priority 2014, dated 2018), this text covers Ki for 5 compounds.

Test [1] deals with Recombinant human soluble BACE1 catalytic domain (Homo sapiens (Human), UniProt P56817). In words: BACE1 HTRF FRET Assay. In kind it is biochemical. Conditions: Ki calculated from IC50 using the Cheng-Prusoff equation; QSY7-APPswe-Eu substrate, pH 5.0; read-out: BACE-1 Ki. An outline of the steps: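 Purified BACE1 catalytic domain (3 nM as added) is preincubated with inhibitor for 30 min at 30 °C in 20 mM Na-acetate pH 5.0, 10% glycerol, 0.1% Brij-35, 7.5% DMSO. QSY7-APP^swe-Eu substrate (200 nM final) is then cleaved for 1.5 h at 30 °C and read as time-resolved 620 nm fluorescence. IC50s come from nonlinear regression, and Ki from Cheng-Prusoff using substrate Km 8 μM.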

For test [2], the target named is purified human autoBACE-2 (Homo sapiens (Human), UniProt Q9Y5Z0). As to the kind of experiment: BACE-2 Assay (BACE-HTRF assay). To be noted: Ki calculated from IC50 using the Cheng-Prusoff equation; QSY7-EISEVNLDAEFC-Eu-amide substrate, pH 5.0. In kind it is biochemical. Put shortly: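 Endpoint proteolysis of a QSY7/europium FRET peptide by purified human autoBACE-2, 5% DMSO final, read by time-resolved fluorescence at 620 nm after 320 nm excitation.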
purified human autoBACE-2, sequence (Q9Y5Z0 63-473 limits assumed): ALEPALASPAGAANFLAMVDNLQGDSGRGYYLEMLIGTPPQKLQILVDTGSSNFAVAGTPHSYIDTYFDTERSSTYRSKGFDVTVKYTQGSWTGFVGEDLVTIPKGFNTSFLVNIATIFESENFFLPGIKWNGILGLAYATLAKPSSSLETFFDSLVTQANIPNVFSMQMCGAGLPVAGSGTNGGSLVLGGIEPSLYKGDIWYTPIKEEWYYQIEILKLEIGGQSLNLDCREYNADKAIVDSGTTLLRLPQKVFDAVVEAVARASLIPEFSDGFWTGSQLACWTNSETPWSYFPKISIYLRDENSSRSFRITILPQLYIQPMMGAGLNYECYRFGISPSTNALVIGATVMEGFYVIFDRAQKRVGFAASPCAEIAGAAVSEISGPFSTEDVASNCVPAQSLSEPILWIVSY

Recombinant human soluble BACE1 catalytic domain, sequence (P56817 75-416): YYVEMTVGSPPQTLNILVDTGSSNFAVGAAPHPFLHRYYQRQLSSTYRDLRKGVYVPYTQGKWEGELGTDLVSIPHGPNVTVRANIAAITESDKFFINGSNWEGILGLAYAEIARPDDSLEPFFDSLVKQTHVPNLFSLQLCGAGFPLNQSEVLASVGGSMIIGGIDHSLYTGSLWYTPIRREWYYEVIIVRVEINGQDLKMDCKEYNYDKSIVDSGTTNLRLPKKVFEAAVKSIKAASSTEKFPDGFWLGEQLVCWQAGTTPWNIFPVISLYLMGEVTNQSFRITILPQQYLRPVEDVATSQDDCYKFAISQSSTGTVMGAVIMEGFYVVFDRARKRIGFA

As to `COCCOc1ccc(F)c([C@]23CO[C@@H](C4CC4)C[C@H]2C(=O)N(C)C(=N)N3)c1` [Example 50, (4aR,6R,8aS)-6-cyclopropyl-8a-(2-fluoro-5-(2-methoxyethoxy)phenyl)-2-imino-3-methylhexahydro-1H-pyrano[3,4-d]pyrimidin-4(4aH)-one], the Ki is 92 nM in test [1] and 68 nM in test [2].
Taken in the same sequence, the figures for `COC[C@H]1C[C@H]2C(=O)N(C)C(=N)N[C@@]2(c2cc(Br)ccc2F)CO1` [Example 89, (4aR,6R,8aS)-8a-(5-bromo-2-fluorophenyl)-2-imino-6-(methoxymethyl)-3-methylhexahydro-1H-pyrano[3,4-d]pyrimidin-4(4aH)-one] were 910 nM and 304 nM.
The corresponding values for `CN1C(=N)N[C@@]2(c3ccc(F)cc3F)CO[C@@H](C3CC3)C[C@H]2C1=O` [Example 6, (4aR,6R,8aS)-6-cyclopropyl-8a-(2,4-difluorophenyl)-2-imino-3-methylhexahydro-1H-pyrano[3,4-d]pyrimidin-4(4aH)-one] are 99 nM and 265 nM.
The corresponding values for `C[C@H]1C[C@H]2C(=O)N(C)C(=N)N[C@@]2(c2cc(Oc3ncccc3F)ncc2F)CO1` [Example 96] are 145 nM and 31.3 nM.
For `C[C@H]1C[C@H]2C(=O)N(C)C(=N)N[C@@]2(c2cc(Oc3ncccc3F)ccc2F)CO1` [Example 19, (4aR,6S,8aS)-8a-(2-fluoro-5-((3-fluoropyridin-2-yl)oxy)phenyl)-2-imino-3,6-dimethylhexahydro-1H-pyrano[3,4-d]pyrimidin-4(4aH)-one], the Ki in test [1] was 7 nM; in test [2], 5 nM.
